According to patent US6026817A, “Method of treating the syndrome of coronary heart disease risk factors in humans” (priority 1998, dated 2000):
Several values for one entry are separate records, joined by “and”; a condition that tells them apart may be missing. Equal values may be shown once.

Tests used:
[1] = target: δ opioid receptor (Homo sapiens, UniProt P41143); test: Receptor binding, displacement of prototype ligand DADLE
Source text: (§1) For each receptor there is a prototype ligand. […] For the μ receptor the prototype ligand is DHM (dihydromorphine). For the δ receptor, the prototype ligand is DADLE (D-Ala+D-Leu-Enkephalin), and for the κ receptor, the prototype ligand is EKC (ethylketocyclazocine).

[2] = test system: μ, δ, and κ opiate receptors; test: Ratios of IC50 between opiate receptors; type: binding
Source text: as §1
The relationship between the IC50 levels f or the μ, δ, κ opiate receptors may also be expressed in terms of a ratio.

[3] = target: κ opioid receptor (Homo sapiens, UniProt P41145); test: biochemical; type: binding; details: prototype ligand EKC
κ opioid receptor, sequence (P41145 whole entry): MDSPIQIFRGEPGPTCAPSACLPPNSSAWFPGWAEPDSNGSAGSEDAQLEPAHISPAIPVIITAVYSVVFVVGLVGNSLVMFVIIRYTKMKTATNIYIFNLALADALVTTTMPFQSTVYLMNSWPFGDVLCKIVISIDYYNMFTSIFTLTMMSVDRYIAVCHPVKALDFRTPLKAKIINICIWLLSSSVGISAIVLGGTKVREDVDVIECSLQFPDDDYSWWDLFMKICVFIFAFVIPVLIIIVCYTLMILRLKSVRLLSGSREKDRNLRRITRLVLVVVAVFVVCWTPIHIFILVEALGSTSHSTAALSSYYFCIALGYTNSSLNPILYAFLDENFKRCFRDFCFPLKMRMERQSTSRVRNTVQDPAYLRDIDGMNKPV
Source text: as §1

[4] = target: μ opioid receptor (Homo sapiens, UniProt P35372); test: biochemical; type: binding; details: prototype ligand DHM
μ opioid receptor, sequence (P35372 whole entry): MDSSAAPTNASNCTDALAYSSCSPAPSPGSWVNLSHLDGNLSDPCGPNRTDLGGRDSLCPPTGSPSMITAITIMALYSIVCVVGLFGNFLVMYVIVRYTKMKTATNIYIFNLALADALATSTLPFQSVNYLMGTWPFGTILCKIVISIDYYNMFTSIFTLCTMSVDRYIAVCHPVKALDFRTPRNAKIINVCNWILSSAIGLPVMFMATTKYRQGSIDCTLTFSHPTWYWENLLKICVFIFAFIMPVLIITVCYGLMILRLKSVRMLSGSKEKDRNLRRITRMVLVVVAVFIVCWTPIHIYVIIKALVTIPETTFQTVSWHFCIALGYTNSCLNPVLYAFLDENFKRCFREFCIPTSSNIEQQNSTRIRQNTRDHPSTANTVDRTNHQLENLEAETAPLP
Source text: as §1

[5] = test system: insulin resistant subject one; test: Example II: CHMMO given to an insulin resistant subject, blood values and liver enzymes; type: in vivo, human
Protocol: A insulin resistant subject was given 17-cyclopropylmethyl-3-hydroxy-14-methoxy-8β-methylmorphinan-6-one hydrochloride (CEMMO), a pure opioid antagonist, in two daily doses of 18 mg each for the duration of one week, followed by 9 mg b.i.d. for another 4 weeks.

[6] = test system: women with polycystic ovary syndrome with Acanthosis Nigrians; details: four women, period of a few days; cited from earlier work
[7] = test system: subject one with Impaired Glucose Tolerance and borderline Type 2 Diabetes; test: Example III: Nalmefene given to a subject with Impaired Glucose Tolerance, blood values, enzymes, weight, blood pressure; type: in vivo, human; set-up: HgbA1c Δ% (reduction) / C-Peptide Δ% (reduction) / Chol. Total Δ% (reduction) / LDL-C. Δ% (reduction) / TG Δ% (reduction) / FFA Δ% (reduction): concentration or dose not given beside the values
[8] = test system: body weight; details: in vivo; cited from earlier work
[9] = test system: patients with prolactin-producing tumors of the pituitary gland; details: cited from earlier work
[10] = test system: insulin resistant subject; test: Example I: metyrosine given to an insulin resistant subject, fasting blood values; type: in vivo, human
Protocol: A insulin resistant subject was given 250 mg metyrosine twice daily.

[11] = Day 41 vs Day 1 (after 5 weeks)
[12] = Day 41 vs Day 1 (after 5 weeks), hydrochloride
[13] = Day 41 vs Day 1 (after 5 weeks), listed as CEMMO, hydrochloride
[14] = day 41 (after 5 weeks), 18 mg b.i.d. one week, then 9 mg b.i.d.
[15] = day 41, 18 mg b.i.d. one week, then 9 mg b.i.d.
[16] = 8 weeks of 250 mg twice daily vs initial
[17] = initial levels, before treatment

δ opioid receptor, sequence (P41143 whole entry): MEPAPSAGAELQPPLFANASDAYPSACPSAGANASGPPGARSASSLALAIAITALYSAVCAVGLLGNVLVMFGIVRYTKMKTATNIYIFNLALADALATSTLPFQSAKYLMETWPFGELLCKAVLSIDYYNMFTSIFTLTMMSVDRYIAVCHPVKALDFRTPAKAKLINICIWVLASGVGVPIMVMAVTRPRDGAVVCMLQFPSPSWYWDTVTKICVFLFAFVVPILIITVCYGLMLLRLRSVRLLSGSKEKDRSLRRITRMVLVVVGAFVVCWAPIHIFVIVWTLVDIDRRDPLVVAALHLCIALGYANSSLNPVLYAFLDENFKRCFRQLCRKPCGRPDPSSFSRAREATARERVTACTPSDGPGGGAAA

## CO[C@@]12[C@@H](C)CC(=O)C[C@@]13CCN(CC1CC1)[C@@H]2Cc1ccc(O)cc13.Cl [CHMMO, 17-cyclopropylmethyl-3-hydroxy-14-methoxy-8βmethylmorphinan-6-one hydrochloride]
[1]
  IC50: 800 pM
[2]
  IC50 κ/ IC50 δ ratio: < 3
  IC50 κ/ IC50 μ ratio: < 3
  δ,κ,μ IC50 being within a factor of: ≤ 3
[3]
  IC50: 950 pM
[4]
  IC50: 500 pM
[5]; Day 1
  Weight: 82 kg
[5]; Day 1, Table III
  Alk-phos: 145 U/L
[5]; Day 41, 9.0 mg b.i.d.
  Weight: 80 kg
[5]; Day 41, 9.0 mg b.i.d., Table III
  Alk-phos: 126 U/L
[5]; Day 41 vs Day 1
  ALT Δ%: 31%
  AST Δ%: 30%
  Alk-phos Δ%: 6%
  Glucose Δ%: 14%
  LD Δ%: 27%
  Weight Δ%: 4.5%
[5]; [11]
  Chol. Total Δ% (fall): 21%
  LDL-C. Δ% (fall): 7%
  TG Δ% (fall): 42%
[5]; [12]
  FFA Δ% (fall): 22.7%
  HDL-C. Δ% (increase): 16%
  Insulin Δ% (fall): 50%
  LDL/HDL Δ% (improvement): 22%
[5]; [13]
  FFA Δ% (fall): 23%
  HDL-C. Δ% (increase): 20%
  Insulin Δ% (fall): about 50%
  LDL/HDL Δ% (improvement): 23%
[5]; after the first week, 18 mg twice daily, remained essentially at the same level
  Blood glucose: 95 mg/dL
[5]; day 1
  ALT: 29 U/L
  AST: 23 U/L
  CH. T (total cholesterol): 234 mg/dL
  FFA: 0.75 mM/L
  Gluc.: 111 mg/dL
  HDL: 30 mg/dL
  Insulin: 14 μU/ml
  LD: 162 U/L
  LDL: 156 mg/dL
  LDL/HDL: 5.2
  TG: 229 mg/dL
[5]; day 1, Table II (unit not given)
  Alk.-Phos: 145
[5]; day 41
  ALT: 20 U/L
  AST: 16 U/L
  LD: 117 U/L
[5]; [14]
  CH. T (total cholesterol): 185 mg/dL
  HDL: 36 mg/dL
  Insulin: 6 μU/ml
  LDL: 145 mg/dL
  TG: 133 mg/dL
[5]; day 41 (after 5 weeks), 18 mg b.i.d. one week, then 9 mg b.i.d., hydrochloride
  LDL/HDL: 4.0 and 4.03
[5]; day 41 (after 5 weeks), 18 mg b.i.d. one week, then 9 mg b.i.d., listed as CEMMO, hydrochloride
  LDL/HDL: 4.0
[5]; day 41, Table II (unit not given)
  Alk.-Phos: 126
[5]; [15]
  FFA: 0.58 mM/L
  Gluc.: 95 mg/dL
[5]; during the first week, 18 mg twice daily
  drop of blood glucose: 15%
[5]; end of study, after 5 weeks
  FFA: 580 μE/L
[5]; end of the study
  Weight: slight weight loss
[5]; start of study
  FFA: 754 μE/L

## C=C1CC[C@@]2(O)[C@H]3Cc4ccc(O)c5c4[C@@]2(CCN3CC2CC2)[C@H]1O5 [Nalmefene, 6-desoxy-6-methylene-naltrexone]
[2]
  δ,κ,μ IC50 being within a factor of: ≤ 10
[6]
  elevated insulin concentrations: reduced
[7]; Day 1
  ALT: 72 U/L
  AST: 31 U/L
  Alk-phos: 70 U/L
  Blood Pressure, diastolic: 100
  Blood Pressure, systolic: 136
  C-Peptide: 4.7 ng/mL
  Chol. Total: 247 mg/dL
  FFA: 0.68 mM/L
  GG-transp: 56 U/L
  Glucose: 138 mg/dL
  HDL-C.: 37 mg/dL
  HgbA1c: 6.0%
  Insulin: 27 μU/ml
  LD: 125 U/L
  LDL-C.: 140 mg/dL
  LDL/HDL: 3.78
  TG: 270 mg/dL
  Weight: 86 kg
[7]; Day 141, 0.5 mg b.i.d.
  ALT: 42 U/L
  AST: 16 U/L
  Alk-phos: 72 U/L
  Blood Pressure, diastolic: 83
  Blood Pressure, systolic: 128
  C-Peptide: 2.9 ng/mL
  Chol. Total: 193 mg/dL
  FFA: 0.41 mM/L
  GG-transp: 32 U/L
  Glucose: 120 mg/dL
  HDL-C.: 40 mg/dL
  HgbA1c: 5.4%
  Insulin: 16 μU/ml
  LD: 120 U/L
  LDL-C.: 118 mg/dL
  LDL/HDL: 2.95
  TG: 175 mg/dL
  Weight: 79 kg
[7]; Day 141 vs Day 1
  ALT Δ%: 42%
  AST Δ%: 48%
  Alk-phos Δ%: 3%
  Blood Pressure reduction, diastolic: 17 pts
  Blood Pressure reduction, systolic: 8 pts
  C-Peptide Δ% (reduction): 38%
  Chol. Total Δ% (reduction): 22%
  FFA Δ% (reduction): 40%
  GG-transp Δ%: 43%
  Glucose Δ% (reduction in fasting blood glucose): 13%
  HDL-C. Δ% (increase): 8%
  HgbA1c Δ% (reduction): 10%
  Insulin Δ%: 43%
  LD Δ%: 4%
  LDL-C. Δ% (reduction): 16%
  LDL/HDL Δ% (improvement): 22%
  TG Δ% (reduction): 35%
  Weight Δ% (reduction): 8%

## O=C1CC[C@@]2(O)[C@H]3Cc4ccc(O)c5c4[C@@]2(CCN3CC2CC2)[C@H]1O5 [Naltrexone]
[8]
  reduction of body weight: inconsistent results

## CC(C)C[C@H]1C(=O)N2CCC[C@H]2[C@]2(O)O[C@](NC(=O)[C@@H]3C=C4c5cccc6[nH]c(Br)c(c56)C[C@H]4N(C)C3)(C(C)C)C(=O)N12 [bromocriptine, 2-bromo-α-ergocryptine]
[9]
  glucose tolerance: improves glucose tolerance
  insulin values: decreases insulin values toward normal

## C[C@](N)(Cc1ccc(O)cc1)C(=O)O [metyrosine, α-methyltyrosine]
[10]; 4 weeks after discontinuation
  Chol. Tot: 254 mg/dL
  FFA: 747 μE/ml
  Glucose: 122 mg/dL
  HDL: 37 mg/dL
  Insulin: 15 μU/ml
  LDL: 189 mg/dL
  LDL/HDL: 5.1
  TG: 211 mg/dL
[10]; 4 weeks following discontinuation
  all values after discontinuation of the treatment regimen: returned essentially to their pre-study levels
[10]; 8 weeks of 250 mg twice daily
  Chol. Tot: 209 mg/dL
  Glucose: 110 mg/dL
  HDL: 27 mg/dL
  Insulin: 13 μU/ml
  LDL: 134 mg/dL
  LDL/HDL: 5.0
  TG: 144 mg/dL
  free fatty acids (FFA): 575 μE/L
[10]; 8 weeks of 250 mg twice daily (Table I)
  FFA: 575 μE/ml
[10]; [16]
  decrease of HDL: 34%
  decrease of LDL: 24%
  decrease of fasting blood glucose level (BGL): 10%
  decrease of free fatty acids (FFA): 23%
  decrease of insulin: 32%
  decrease of total cholesterol (TCH): 30%
  decrease of triglycerides (TG): 31%
[10]; 14 weeks of 250 mg twice daily
  HDL: 39 mg/dL
  LDL: 119 mg/dL
  LDL/HDL: 3.1
  total reduction of LDL from the beginning of the study: 32%
[10]; initial level
  free fatty acids (FFA): 742 μE/L
[10]; [17]
  Chol. Tot: 299 mg/dL
  Glucose: 121 mg/dL
  HDL: 41 mg/dL
  Insulin: 19 μU/ml
  LDL: 176 mg/dL
  LDL/HDL: 4.3
  TG: 208 mg/dL
[10]; initial levels, before treatment (Table I)
  FFA: 742 μE/ml
[10]; week 8
  body weight: slight decrease
